Source: patent US9796777B2, “Methods of treating malignant tumors” (Canimguide Therapeutics AB, priority 2007, dated 2017)

What was measured:
[1] = system: mAb A; details: second trypsination of <30 kD fragments eluted from mAb A at pH 2.7
Description: MALDI epitope mapping of mAb A based on antibody protection of proteolysis was repeated. This time a slightly different approach was used. Denatured HSA was incubated with mAb A. Albumin not bound by the antibody, was removed from the sample by size exclusion on an ultra filter. The remaining free mabs and the complexes of mab-albumin was then digested with trypsin (sequences of the albumin molecule to which mab is bound should resist the trypsin digestion). Small cleaved fragments of mab and unprotected albumin was then removed from the sample by ultrafiltration (30 kD). The complexes of mAb and bound albumin fragments were dissociated by lowering the pH to 2.7. Again ultrafiltration at 30 kD was performed to separate whole mAb from albumin fragments smaller than 30 kD.
Denatured HSA (80 μg) was incubated with mAb A (10 μg) in PBS for 18 h at room temperature. […] The retentate was diluted in 25 mM NH4HCO3 and again centrifuged as described above. The retentate was transferred to a sterile eppendorf microcentrifuge tube in 0.4 ml 25 mM NH4HCO3 and 0.4 μg sequencing grade modified trypsin (Promega) was added. Digestion was carried out at 37° C. over night with gentle agitation. Trypsin and free (not antibody-bound) albumin fragments were removed by ultrafiltration on a Amicon Ultra-4 filter (mw cut-off 30 000 Da, Millipore Co.) for 5 min at 3000 rpm. This was repeated three times. The retentate was then transferred to a new ultra filter where the mAb A was disassociated from bound albumin by the addition of 600 μl 0.1 M glycine-HCl, pH 2.7, for 30 min at room temperature after which the ultra filter was centrifuged for 10 min at 3000 rpm. The filtrate was transferred to a sterile Eppendorf microcentrifuge tube and neutralized with Tris-HCl, pH 9. The sample was then immediately dried over night in a SpeedVac vacuum concentrator. The samples were then dissolved in 16 μl of sequencing grade modified trypsin (at 5 μg/ml) (Promega) and incubated at 37° C. for 18 hours. Zip Tip pipette tips (Millipore) containing C18 chromatorgraphy media were used for desalting before the sample was analysed by MALDI TOF ms (see below).
1 μl of each sample of the tryptic digestion was mixed with 1 μl of a saturated solution of α-cyano-4-hydroxycinamic acid ([…]) in 70% acetonitrile/0.3% trifluoro acetic acid. 1 μl of that mixture was spotted on a stainless steel target plate and analysed using MALDI-TOF ms (Voyager-DE PRO, Applied Biosystems, CA, US) equipped with a 337 nm N2 laser. Database searches for masses corresponding to human serum albumin in the resulting spectra were performed in NCBI or SwissProt with MS-Fit as search engine.

[2] = system: cell surface receptors of immune cells (ACS); assay: Adsorption of enzyme fragmented dHSA on affinity column with biotinylated cell surface proteins (ACS), MALDI-TOF ms; format: binding, human
Description: Based on the observation that immunoregulatory peptide sequences are present in serum albumin, there is the possibility that other sequences than the epitope of mAb A have immunoregulatory function. Therefore an artificial cell surface (ACS) was prepared as described in materials and methods. […]
To remove unfragmented albumin and enzyme, the sample was ultra filtered through an Amicon Ultra 4 (mw cut-off of 5000) or a Centriplus (mw cut-off 10000) centrifugal filter (Millipore AB, Solna, Sweden). The filtrate, containing fragmented dHSA without enzymes, was collected and diluted with PBS with Ca and Mg (GIBCO).
Buffy coats generated from 450 ml blood each was collected from 4 healthy donors. Erythrocytes were removed by sedimentation on 2% dextran T500 solution (Amersham Pharmacia Biotech AB, Uppsala Sweden) in 0.9% NaCl. Mononuclear cells (PBMC) were then isolated by Ficoll-Paque Plus (GE Healthcare Bioscience AB Sweden) density gradient centrifugation. The PBMC were then suspended in phosphate buffered saline (PBS) containing Ca and Mg (GIBCO) at a concentration of 10×10^6/ml. EZ Link Sulfo-NHS-biotin (Pierce USA) was added at a final concentration of 0.2 mg/ml and the mixture incubated on a shaker at room temperature for 10 min. Excess biotin was then removed by washing the PBMC in PBS. Biotinylated PBMC were then lysed by adding 1.0 ml ice-cold lysing buffer (50 mM Tris-HCL, pH 7.5, with 0.15 M NaCl, 5 mM MgCl2 containing 100 mM Octyl glucoside and 1 mM Phenylmethylsulfonyl fluoride) per 2×10^7 pelleted cells with gentle shaking, then incubated for 30 min. on ice. Debris was removed by centrifugation at 5000×g at 4° C. for 10 min and the supernatants was collected and pooled from all four donors. The lysate was then stored at −70° C. in polypropylene plastic tubes.
This amount of lysate corresponds to 36×10^7 mononuclear cells. It was added to a 1 ml Hitrap Streptavidin HP affinity column (Amersham Biosciences). To block possible remaining free biotin, 5 ml of 0.1 M glycine (Sigma) was added to the column. Unsaturated streptavidin on the column was then reacted with 150 ug biotin (Sigma) in binding buffer. The column was carefully washed with PBS and stored in PBS with 0.1% NaN3 at 4° C. until use.
27 ml biotinylated cell lysate in binding buffer (corresponding to 54×10^7 mononuclear cells) was added to 1.5 ml washed Streptavidin Sepharose HP (Amersham Biosciences). To block possible remaining free biotin, 25 ml of 0.1 M glycine (Sigma) was added to the Streptavidin Sepharose. Unsaturated streptavidin was then reacted with 225 μg biotin (Sigma) in binding buffer. The Streptavidin Sepharose was carefully washed in PBS. One ml of the biotinylated cell lysate coupled Streptavidin Sepharose was then packed in an empty column (Tricorn Empty High Performance Column, Amersham Bioscience) and washed with phosphate buffered saline (PBS) containing Ca and Mg (GIBCO).
The flow-through was collected with consideration taken to void volume and dilution of adsorbed sample by collecting in small portions of 0.2 ml. Thirty ul of each sample, including a control sample that has not been adsorbed, were dried in a Speed-Vac centrifuge.
Dried samples were reconstituted in 10 ul of 0.1% TFA. Zip Tip pipette tips (Millipore, USA) containing C18 reversed-phase media were used for desalting reconstituted samples. […] For the analysis of samples in the mass range 1500-9000 Da, one μl of each Zip Tip eluted sample was mixed with 1 μl of sinapinic acid ([…]). […] Mass identity search of resulting spectra was performed in the SwissProt or NCBI databases using MS-Fit.

[3] = target: T1, β2-integrin LFA-1 (CD11a) (Homo sapiens, UniProt P20701); assay: Immunocytochemical staining of PBMC and THP-1 with anti-integrin (CD11a) antibody with or without albumin peptides; format: binding; details: monocytic cell line THP-1; peptide 40 μg/ml preincubation
T1 construct: endogenous in cells; host or cells: human PBMC (healthy controls, cancer patients) and THP-1 monocytic cell line (ATCC)
Description: Cytospin preparations of mononuclear blood cells from healthy controls, cancer patients and a monocytic cell line, THP-1, were prepared (as described under materials and methods), dried and stored at −70° C. In the immunocytological staining, unspecific staining was blocked by incubation with 10% human AB serum. Some of the slides were preincubated for 60 minutes with albumin peptides at a concentration of 40 μg/ml, added to this 10% AB serum, as indicated in the FIG. 8 A-F. The staining procedure was then continued as described in material and methods. The staining intensity of slides stained with and without preincubation with the peptides was recorded semi quantitatively using a standard light microscope.
PBMC were separated as described above. Cultured THP-1 cells (obtained from the American Type Culture Collection through LGL Nordic AB, Sweden) were carefully washed and suspended in RPMI1640. PBMC and THP-1 were immediately spun down on pre-cleaned microscope slides in a Shandon Cytospin (Shandon Scientific Ltd, UK) at 1000 RPM for 7 min at 2.5 or 5×10^4 cells per slide. The slides were left to dry at room temperature over night, after which they were wrapped in parafilm and stored at −70° C. Immediately before use, the cytospins were thawed and fixed with acetone for 5 min at room temperature. The cytospins were first blocked with 10% normal human AB-serum with and without albumin peptides (40 ␣g/ml) for 1 h before staining. Primary antibody, consisting of a monoclonal mouse anti-human CD11a (clone HI111, BD Biosciences) diluted in Tris buffered saline (TBS, pH 7.6) at 5 μg/ml (THP-1) or 1 µg/ml (PBMC), was added. The slides were incubated for 30 min and then washed in TBS followed by Envision-Alkaline Phosphatase (Dako Norden A/S, Denmark) for 30 min. After additional washing in TBS, the slides were incubated in alkaline phoshatase substrate consisting of Fast Red TR salt (Sigma), naphtol AS-MX (Sigma) and 5 mM levamisol (Sigma) to block endogenous alkaline phosphatase activity, for 20 min followed by washing in TBS. They were then counterstained in Mayer's haematoxylin for 1 minute and mounted in Glycergel (Dako Norden NS). Monoclonal mouse IgG1 against an irrelevant antigen (Aspergillus niger glukosoxidase, Dako Norden NS) was used as a negative control. All incubations were performed at room temperature in a moist chamber.
FIG. 24. Inhibition of the binding of anti-LFA-1, mab HI111, to mononuclear blood cells by 3028 peptide and fragments 3325 and 3218. A standard immunohistochemical staining procedure using acetone fixation, 10% human AB-serum for blocking, incubation with HI 111 and a secondary antibody (Ultravision, an alkaline phosphate conjugated polymer attached to Fab-fragments of goat anti-mouse Ig), followed by development with Fast Red. The slides were then mounted in Glycergel. Preincubation with peptides added to the AB serum was as follows: A. No peptide added, B. peptide 3028, C. The C-terminal part (3218), and D. The N-terminal part (3325).

[4] = system: PBMC; assay: LPS-induced IL-6 production by PBMC, effect of peptides; format: cell-based, human
Description: 100 μl of culture medium consisting of RPMI1640 supplemented with 200 IU/ml penicillin, 200 μg/ml streptomycin, 4 mM L-glutamine (Sigma Chemical, Mo., US) and 20% fresh heat-inactivated autologous serum were added to un-coated or -pre-coated microtiter plates followed by 100 μl of PBMC suspension (5×10^4 lymphocytes) in RPMI/2% HSA with peptides at the indicated concentrations. Lipoplysaccharide (LPS, Sigma Chemical Co, MO, US) was added at a final concentration of 0.05 ng/ml. […] All assay conditions were set up in triplicate wells. Supernatants (SNs) were harvested after 24 hrs and residual cells were removed by centrifugation in a refrigerated centrifuge (Beckman) at 2600×g for 5 minutes. SNs were frozen and stored at −70° C. IL-6 in cell culture SNs was measured by ELISA using the DuoSet® ELISA development kit for human IL-6 (R&D Systems Europe, Ltd., Abingdon, UK) following the manufacturer's recommended procedures. The lower limit of detection was 3.1 pg/ml. Samples were analysed as mean of triplicate wells.

[5] = system: PBMC; assay: IL-2 induced proliferation of PBMC with albumin peptides in coated and uncoated tissue culture plates; format: cell-based, human; details: PBMC from healthy individuals; peptide 5 μg/ml final; 7 days
Description: A mixture of 1 mg/ml IgG in a solution of 9 mg/ml HSA in RPMI (HSA/IgG) was also prepared. 200 μl of HSA or HSA/IgG were then added to each well of the plate. The plates were incubated at 4° C. for 30 minutes after which the wells were washed twice with 200 μl of RPMI1640. The coated plates were used immediately. […] PBMC, isolated from healthy individuals, were diluted in RPMI/2% HSA and peptides were added directly to the cell suspension at a concentration of 10 μg/ml.

[6] = Table 5 A, peptides generated by trypsin degradation of dHSA

T1 sequence (P20701 26-1170): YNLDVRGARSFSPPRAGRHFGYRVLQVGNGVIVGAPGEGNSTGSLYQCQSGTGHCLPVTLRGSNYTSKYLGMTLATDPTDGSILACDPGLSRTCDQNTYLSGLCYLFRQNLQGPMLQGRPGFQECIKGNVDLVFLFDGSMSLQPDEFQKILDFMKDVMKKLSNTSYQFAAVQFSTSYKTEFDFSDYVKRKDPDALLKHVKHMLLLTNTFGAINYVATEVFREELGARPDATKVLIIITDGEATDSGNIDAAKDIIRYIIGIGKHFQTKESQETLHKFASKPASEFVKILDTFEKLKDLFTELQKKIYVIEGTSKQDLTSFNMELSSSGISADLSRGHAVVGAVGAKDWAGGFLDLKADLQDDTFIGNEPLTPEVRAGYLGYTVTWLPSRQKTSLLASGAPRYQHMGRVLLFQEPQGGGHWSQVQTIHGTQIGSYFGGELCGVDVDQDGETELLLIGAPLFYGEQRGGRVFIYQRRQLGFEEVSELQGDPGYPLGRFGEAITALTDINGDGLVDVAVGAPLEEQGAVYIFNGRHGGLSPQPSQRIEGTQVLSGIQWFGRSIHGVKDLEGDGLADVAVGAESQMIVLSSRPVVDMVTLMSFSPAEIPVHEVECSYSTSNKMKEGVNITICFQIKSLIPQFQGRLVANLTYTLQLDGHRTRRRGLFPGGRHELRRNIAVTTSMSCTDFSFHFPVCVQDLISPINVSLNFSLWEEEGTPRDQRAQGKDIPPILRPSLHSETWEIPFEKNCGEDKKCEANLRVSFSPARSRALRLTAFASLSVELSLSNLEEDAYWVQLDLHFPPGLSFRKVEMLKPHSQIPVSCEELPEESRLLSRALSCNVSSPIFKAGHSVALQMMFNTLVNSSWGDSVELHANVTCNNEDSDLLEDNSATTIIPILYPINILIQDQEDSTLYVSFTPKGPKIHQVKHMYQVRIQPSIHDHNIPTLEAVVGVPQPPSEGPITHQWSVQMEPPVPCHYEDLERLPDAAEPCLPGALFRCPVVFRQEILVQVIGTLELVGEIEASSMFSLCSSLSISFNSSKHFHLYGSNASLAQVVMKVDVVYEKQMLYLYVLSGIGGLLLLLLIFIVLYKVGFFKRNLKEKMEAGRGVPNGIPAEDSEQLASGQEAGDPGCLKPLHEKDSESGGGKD
T1 sequence (P05107 23-769 partner): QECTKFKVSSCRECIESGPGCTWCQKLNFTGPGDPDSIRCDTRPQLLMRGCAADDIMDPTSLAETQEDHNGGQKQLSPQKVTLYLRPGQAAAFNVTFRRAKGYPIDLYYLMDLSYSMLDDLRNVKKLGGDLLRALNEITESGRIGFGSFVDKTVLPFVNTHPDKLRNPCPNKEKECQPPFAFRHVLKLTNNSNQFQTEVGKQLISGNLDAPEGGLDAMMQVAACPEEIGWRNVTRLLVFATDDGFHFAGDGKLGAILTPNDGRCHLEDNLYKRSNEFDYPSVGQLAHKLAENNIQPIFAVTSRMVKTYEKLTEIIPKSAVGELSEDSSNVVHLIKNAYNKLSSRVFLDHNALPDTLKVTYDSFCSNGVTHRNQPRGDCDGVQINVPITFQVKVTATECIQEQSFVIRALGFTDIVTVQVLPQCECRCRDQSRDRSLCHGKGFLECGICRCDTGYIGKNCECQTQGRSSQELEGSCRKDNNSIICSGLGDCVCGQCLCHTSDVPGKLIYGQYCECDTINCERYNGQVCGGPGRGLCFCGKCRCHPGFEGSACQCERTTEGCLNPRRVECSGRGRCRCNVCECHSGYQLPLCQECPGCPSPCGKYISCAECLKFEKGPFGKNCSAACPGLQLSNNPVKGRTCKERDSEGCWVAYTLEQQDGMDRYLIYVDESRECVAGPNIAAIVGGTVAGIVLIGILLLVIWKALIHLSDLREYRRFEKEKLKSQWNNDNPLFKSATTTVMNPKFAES

Row | Substance | Peak area [1] | Per cent adsorbed [2, 6] [Per cent] | also measured
1 | CCTESLVNR [500-508, tryptic peptide of dHSA] | 119 | 0.26 | –
2 | DDNPNLPR [tryptic peptide of dHSA] | 534 | 0.01 | –
3 | FQNALLVR [427-434, tryptic peptide of dHSA] | 1345 | 0.41 | –
4 | KLDELRDEGKAS [peptide 2606] | – | – | effect on binding of the mAb to LFA-1 [3]: clearly enhanced; effect on LPS induced IL-6 production ([4]; PBMCs from one healthy control, lowest peptide concentration): inhibitory
5 | KVPQVSTPTLVEVSR [compound 3029] | – | 0.64 | effect on LPS induced IL-6 production ([4]; three cancer patients): essentially no effects; effect on LPS induced IL-6 production ([4]; two healthy controls): slight stimulatory effect in only one of the controls; effect on IL-2 induced proliferation [5]: no statistically significant activity; Per cent adsorbed ([2]; Table 5 B, trypsin peptides selected for synthesis): 0.64 Per cent
6 | LCTVATLR [098-105, tryptic peptide of dHSA] | 744 | 0.35 | –
7 | LDELRDEGK [206-214, tryptic peptide of dHSA] | 644 | 0.02 | –
8 | LSQRFPK | 481 | – | –
9 | LVNEVTEFAK [066-075, tryptic peptide of dHSA] | 1918 | -0.02 | –
10 | YLYEIAR [162-168, tryptic peptide of dHSA] | 1035 | 0.34 | –
